Laboratory results taken from patent US8329644B2, “Lantibiotic-based compounds having antimicrobial activity” (Novacta Biosystems Limited, priority 2007, dated 2012).
≈ marks a conversion by molar mass, not a printed value.

Experiments:
[1] = tested on: Bifidobacterium adolescentis; test: MIC against intestinal flora organisms, Bifidobacterium adolescentis; assay type: cell-based; conditions: Bifidobacterium adolescentis NCTC 11814; Table 5
S. aureus = test: MIC susceptibility testing, S. aureus; assay type: cell-based, Staphyloccus aureus
Description: (§1) Susceptibility testing for all aerobic organisms with the exception of Streptococcus pneumoniae was performed by two-fold serial antibiotic dilutions in Mueller-Hinton Broth supplemented with 50 μg/ml Ca^2+ unless otherwise noted. Susceptibility testing for S. pneumoniae was performed by two-fold serial antibiotic dilutions in Brain-Heart-Infusion Broth supplemented with 50 μg/ml Ca^2+ unless otherwise noted. Actively growing broth cultures were diluted to contain […] by adjusting to an OD600 of 0.2-0.3. They were then diluted a further 1:100 in fresh sterile broth. The assays were performed in duplicate in sterile 96-well microtitre plates in a total volume of 200 μl (160 μl broth, 20 μl antimicrobial agent, 20 μl inoculum) in a concentration range from 64 μg/ml to 0.06 μg/ml. […] Clinical isolates of Clostridium difficile were tested in Wilkins-Chalgren Anaerobe Agar under anaerobic conditions. In all cases, vancomycin was used as a reference antibiotic

S. oralis = test: MIC susceptibility testing, S. oralis; assay type: cell-based; conditions: S. oralis 7862912.1; Viridans streptococci; Table 3
Description: as §1

S. constellatus = test: MIC susceptibility testing, S. constellatus; assay type: cell-based; conditions: S. constellatus GRL05065; Viridans streptococci; Table 3
Description: as §1

S. mitis = test: MIC susceptibility testing, S. mitis; assay type: cell-based; conditions: Viridans streptococci, Table 3
Description: as §1

E. coli = test: MIC against intestinal flora organisms, E. coli; assay type: cell-based
Description: as §1

Which “Minimal Inhibitory Concentration (MIC)” value [1] does the source give for CCC(C)[C@@H]1NC(=O)[C@H](C(C)C)NC(=O)[C@H]2NC(=O)CNC(=O)[C@@H]3CS[C@@H](C)[C@@H](NC(=O)[C@H]4CSC[C@H](N)C(=O)N[C@@H](CO)C(=O)NCC(=O)N[C@@H](Cc5c[nH]c6ccccc56)C(=O)N[C@@H](C(C)C)C(=O)N4)C(=O)N[C@@H](CC(C)C)C(=O)N[C@@H](C(=O)N[C@@H](C(C)CC)C(=O)N[C@@H](CCC(=O)O)C(=O)N3)[C@H](C)SC[C@H](NC1=O)C(=O)N[C@@H](C)C(=O)N[C@H](C(=O)NCCO)C[S+]([O-])[C@H]2C (some centres unmarked) [Compound III, Actagardine N-[2-ethanolamine]monocarboxamide] here?
Its value is 32 µg/mL.

What about the MIC (S. aureus; S. aureus 2, Vancomycin intermediate, Table 3) of the same molecule?
Its MIC is 32 µg/mL (≈ 16.6 µM).

And the MIC (S. aureus; S. aureus 26, Vancomycin intermediate, Table 3)?
The MIC was 32 µg/mL (≈ 16.6 µM).

And the MIC (S. aureus; S. aureus 12232, Methicillin resistant, Table 3)?
Its MIC is 8 µg/mL (≈ 4.14 µM).

And the MIC (S. aureus; S. aureus G15, Methicillin sensitive, Table 3)?
Its MIC is over 32 µg/mL.

What about the MIC (S. aureus; S. aureus G20, Methicillin sensitive, Table 3) of the same molecule?
The MIC was 32 µg/mL (≈ 16.6 µM).

What about the MIC (S. aureus; S. aureus G22, Methicillin sensitive, Table 3) of the same molecule?
The MIC was 32 µg/mL (≈ 16.6 µM).

And the MIC (S. aureus; S. aureus G23, Methicillin sensitive, Table 3)?
Its MIC is 32 µg/mL (≈ 16.6 µM).

What about the MIC (S. aureus; S. aureus G28, Methicillin sensitive, Table 3) of the same molecule?
Its MIC is 16 µg/mL (≈ 8.28 µM).

What about the MIC (S. aureus; S. aureus G30, Methicillin sensitive, Table 3) of the same molecule?
The MIC was 32 µg/mL (≈ 16.6 µM).

And the MIC (S. aureus; S. aureus G31, Methicillin sensitive, Table 3)?
Its MIC is over 32 µg/mL.

What about the MIC (S. aureus; S. aureus G32, Methicillin sensitive, Table 3) of the same molecule?
Its MIC is 32 µg/mL (≈ 16.6 µM).

And the MIC (S. aureus; S. aureus G33, Methicillin sensitive, Table 3)?
Its MIC is 32 µg/mL (≈ 16.6 µM).

What about the MIC (S. aureus; S. aureus G35, Methicillin sensitive, Table 3) of the same molecule?
Its MIC is over 32 µg/mL.

What about the MIC (S. aureus; S. aureus MI, Vancomycin intermediate, Table 3) of the same molecule?
Its MIC is 32 µg/mL (≈ 16.6 µM).

What about the MIC (S. aureus; S. aureus Mu3, Vancomycin intermediate, Table 3) of the same molecule?
The MIC was 32 µg/mL (≈ 16.6 µM).

And the MIC (S. aureus; S. aureus Mu50, Vancomycin intermediate, Table 3)?
Its MIC is 32 µg/mL (≈ 16.6 µM).

What about the MIC (S. aureus; S. aureus NJ, Vancomycin intermediate, Table 3) of the same molecule?
Its MIC is over 32 µg/mL.

And the MIC (S. aureus; S. aureus R33, Table 2)?
Its MIC is 16 µg/mL (≈ 8.28 µM).

What about the MIC (S. aureus; S. aureus R34, Methicillin resistant, Table 3) of the same molecule?
The MIC was 8 µg/mL (≈ 4.14 µM).

And the MIC (S. aureus; S. aureus R36, Methicillin resistant, Table 3)?
Its MIC is 16 µg/mL (≈ 8.28 µM).

And the MIC (S. aureus; S. aureus R39, Methicillin resistant, Table 3)?
Its MIC is over 32 µg/mL.

And the MIC (S. aureus; S. aureus R40, Methicillin resistant, Table 3)?
The MIC was 32 µg/mL (≈ 16.6 µM).

What about the MIC (S. aureus; S. aureus SH1000, Methicillin sensitive, Table 3) of the same molecule?
Its MIC is 16 µg/mL (≈ 8.28 µM).

And the MIC (S. aureus; S. aureus SH1000, Table 2)?
The MIC was 8 µg/mL (≈ 4.14 µM).

And the MIC (S. aureus; S. aureus V99, Vancomycin intermediate, Table 3)?
The MIC was 16 µg/mL (≈ 8.28 µM).

What about the MIC (S. aureus; S. aureus W71, Methicillin resistant, Table 3) of the same molecule?
Its MIC is 32 µg/mL (≈ 16.6 µM).

What about the MIC (S. aureus; S. aureus W74, Methicillin resistant, Table 3) of the same molecule?
The MIC was 32 µg/mL (≈ 16.6 µM).

And the MIC (S. aureus; S. aureus W96, Methicillin resistant, Table 3)?
Its MIC is over 32 µg/mL.

What about the MIC (S. aureus; S. aureus W97, Methicillin resistant, Table 3) of the same molecule?
The MIC was over 32 µg/mL.

What about the MIC (S. aureus; S. aureus W98, Methicillin resistant, Table 3) of the same molecule?
Its MIC is 32 µg/mL (≈ 16.6 µM).

And the MIC (S. aureus; S. aureus W99, Methicillin resistant, Table 3)?
Its MIC is 32 µg/mL (≈ 16.6 µM).

And the MIC (S. oralis)?
Its MIC is 8 µg/mL (≈ 4.14 µM).

And the MIC (S. constellatus)?
The MIC was over 32 µg/mL.

What about the MIC (S. mitis; S. mitis 1 7722543) of the same molecule?
The MIC was 4 µg/mL (≈ 2.07 µM).

And the MIC (S. mitis; S. mitis 1 7863547)?
The MIC was 4 µg/mL (≈ 2.07 µM).

And the MIC (S. mitis; S. mitis GRL05062)?
Its MIC is 8 µg/mL (≈ 4.14 µM).

What about the MIC (S. mitis; S. mitis GRL05067) of the same molecule?
Its MIC is 16 µg/mL (≈ 8.28 µM).

And the “Minimal Inhibitory Concentration (MIC)” value (E. coli; E. coli ATCC 25922, Table 5)?
Its value is over 64 µg/mL.

And the “Minimal Inhibitory Concentration (MIC)” value (E. coli; E. coli DC2 (membrane more susceptible), Table 5, first line)?
The value was over 64 µg/mL.

What about the “Minimal Inhibitory Concentration (MIC)” value (E. coli; E. coli DC2 (membrane more susceptible), Table 5, second line) of the same molecule?
The value was over 64 µg/mL.
